Tested on: 324938-238-R-J1-PDC complex spheroid growth, % test/control
Test: Anticancer human tumor 324938-238-R-J1-PDC patient-derived bladder carcinoma cell line growth inhibition [AhR]
Details: for IC50: curve of first compound; for viability, T/C: stronger effect = lower value
How it was run: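 Complex tumor spheroids co-cultured with HUVEC and human MSC stroma; AhR antagonists tested in combination with standard-of-care and investigational agents. Top concentration at or near clinical Cmax (else 10 microM), half-log dilutions; growth expressed as percent test/control.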

[1] = second compound 0.1 µM, first compound 0.0316 µM
[2] = second compound 0.1 µM, first compound 0.1 µM
[3] = second compound 0.1 µM, first compound 0.316 µM
[4] = second compound 0.1 µM, first compound 1 µM
[5] = second compound 0.1 µM, first compound 3.16 µM
[6] = second compound 0.1 µM, first compound 10 µM
[7] = second compound 0.316 µM, first compound 0.0316 µM
[8] = second compound 0.316 µM, first compound 0.1 µM
[9] = second compound 0.316 µM, first compound 0.316 µM
[10] = second compound 0.316 µM, first compound 1 µM
[11] = second compound 0.316 µM, first compound 3.16 µM
[12] = second compound 0.316 µM, first compound 10 µM
[13] = second compound 1 µM, first compound 0.0316 µM
[14] = second compound 1 µM, first compound 0.1 µM
[15] = second compound 1 µM, first compound 0.316 µM
[16] = second compound 1 µM, first compound 1 µM
[17] = second compound 1 µM, first compound 3.16 µM
[18] = second compound 1 µM, first compound 10 µM
[19] = second compound 3.16 µM, first compound 0.0316 µM
[20] = second compound 3.16 µM, first compound 0.1 µM
[21] = second compound 3.16 µM, first compound 0.316 µM
[22] = second compound 3.16 µM, first compound 1 µM
[23] = second compound 3.16 µM, first compound 3.16 µM
[24] = second compound 3.16 µM, first compound 10 µM
[25] = second compound 10 µM, first compound 0.0316 µM
[26] = second compound 10 µM, first compound 0.1 µM
[27] = second compound 10 µM, first compound 0.316 µM
[28] = second compound 10 µM, first compound 1 µM
[29] = second compound 10 µM, first compound 3.16 µM
[30] = second compound 10 µM, first compound 10 µM
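Also: spheroids exposed to agents for seven days before viability read.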

Row | Structure (SMILES) | IC50 (second compound 0.1 µM) | IC50 (second compound 0.316 µM) | IC50 (second compound 1 µM) | IC50 (second compound 3.16 µM) | IC50 (second compound 10 µM) | viability, T/C [1] | viability, T/C [2] | viability, T/C [3] | viability, T/C [4] | viability, T/C [5] | viability, T/C [6] | viability, T/C [7] | viability, T/C [8] | viability, T/C [9] | viability, T/C [13] | viability, T/C [14] | viability, T/C [19] | viability, T/C [20] | viability, T/C [25] | viability, T/C [26] | also measured
1 | COc1cc(Nc2ncc3c(n2)-c2ccc(Cl)cc2C(c2c(F)cccc2OC)=NC3)ccc1C(=O)O + Cc1cncc(-c2nc(NCCc3c[nH]c4ccccc34)c3ncn(C(C)C)c3n2)c1 | > 10000 nM | > 10000 nM | > 10000 nM | > 10000 nM | < 31.6 nM | 116% | 130% | 149% | 91.1% | 127% | 108% | 91.2% | 137% | 104% | 88.9% | 127% | 97.5% | 131% | 17.1% | 14.8% | viability, T/C [10]: 87.1%; viability, T/C [11]: 93.4%; viability, T/C [12]: 65%; viability, T/C [15]: 98.2%; viability, T/C [16]: 107%; viability, T/C [17]: 76%; viability, T/C [18]: 80.4%; viability, T/C [21]: 121%; viability, T/C [22]: 96.2%; viability, T/C [23]: 82.7%; viability, T/C [24]: 84.5%; viability, T/C [27]: 18.8%; viability, T/C [28]: 15%; viability, T/C [29]: 19.1%; viability, T/C [30]: 25.6%
2 | Cn1ncnc1C1c2n[nH]c(=O)c3cc(F)cc(c23)NC1c1ccc(F)cc1 (stereo not given) + Cc1cncc(-c2nc(NCCc3c[nH]c4ccccc34)c3ncn(C(C)C)c3n2)c1 | > 100 nM | > 100 nM | > 100 nM | > 100 nM | < 0.316 nM | 120% | 86.2% |  |  |  |  | 112% | 105% |  | 106% | 134% | 94.2% | 99.3% | 9.12% | 22.1% | viability, T/C (second compound 0.1 µM, first compound 0.000316 µM): 92.1%; viability, T/C (second compound 0.1 µM, first compound 0.001 µM): 110%; viability, T/C (second compound 0.1 µM, first compound 0.00316 µM): 105%; viability, T/C (second compound 0.1 µM, first compound 0.01 µM): 94.5%; viability, T/C (second compound 0.316 µM, first compound 0.000316 µM): 108%; viability, T/C (second compound 0.316 µM, first compound 0.001 µM): 113%; viability, T/C (second compound 0.316 µM, first compound 0.00316 µM): 138%; viability, T/C (second compound 0.316 µM, first compound 0.01 µM): 81.6%; viability, T/C (second compound 1 µM, first compound 0.000316 µM): 78.9%; viability, T/C (second compound 1 µM, first compound 0.001 µM): 142%; viability, T/C (second compound 1 µM, first compound 0.00316 µM): 116%; viability, T/C (second compound 1 µM, first compound 0.01 µM): 112%; viability, T/C (second compound 3.16 µM, first compound 0.000316 µM): 93.7%; viability, T/C (second compound 3.16 µM, first compound 0.001 µM): 112%; viability, T/C (second compound 3.16 µM, first compound 0.00316 µM): 92.6%; viability, T/C (second compound 3.16 µM, first compound 0.01 µM): 98.1%; viability, T/C (second compound 10 µM, first compound 0.000316 µM): 9.29%; viability, T/C (second compound 10 µM, first compound 0.001 µM): 12.6%; viability, T/C (second compound 10 µM, first compound 0.00316 µM): 9.9%; viability, T/C (second compound 10 µM, first compound 0.01 µM): 13%
3 | NS(=O)(=O)OCC1CC(n2ccc3c(NC4CCc5ccccc54)ncnc32)CC1O (stereo not given) + Cc1cncc(-c2nc(NCCc3c[nH]c4ccccc34)c3ncn(C(C)C)c3n2)c1 | 2650 nM | 2480 nM | 2970 nM | 8510 nM | < 31.6 nM | 122% | 101% | 93.4% | 71.9% | 42.9% | 25.7% | 99.7% | 104% | 99.9% | 82.3% | 95.5% | 80% | 114% | 7.19% | 15.3% | viability, T/C [10]: 71%; viability, T/C [11]: 46.4%; viability, T/C [12]: 32.5%; viability, T/C [15]: 95.3%; viability, T/C [16]: 97.6%; viability, T/C [17]: 47.5%; viability, T/C [18]: 29.1%; viability, T/C [21]: 140%; viability, T/C [22]: 103%; viability, T/C [23]: 64.2%; viability, T/C [24]: 47.5%; viability, T/C [27]: 19%; viability, T/C [28]: 23%; viability, T/C [29]: 14.3%; viability, T/C [30]: 7.16%
4 | O=C(C=Cc1cccc(S(=O)(=O)Nc2ccccc2)c1)NO + Cc1cncc(-c2nc(NCCc3c[nH]c4ccccc34)c3ncn(C(C)C)c3n2)c1 | 3650 nM | 3630 nM | 3030 nM | 3750 nM | < 31.6 nM | 121% | 130% | 95.4% | 104% | 53.5% | 1.77% | 101% | 106% | 95.3% | 112% | 122% | 133% | 109% | 9.41% | 28.3% | viability, T/C [10]: 92.7%; viability, T/C [11]: 56.2%; viability, T/C [12]: 2.06%; viability, T/C [15]: 96.5%; viability, T/C [16]: 95.2%; viability, T/C [17]: 46.6%; viability, T/C [18]: 3.32%; viability, T/C [21]: 125%; viability, T/C [22]: 87.7%; viability, T/C [23]: 60%; viability, T/C [24]: 0.96%; viability, T/C [27]: 40%; viability, T/C [28]: 63%; viability, T/C [29]: 61.8%; viability, T/C [30]: 0.41%
